Reference: PMC4403042, “Atrial-like cardiomyocytes from human pluripotent stem cells are a robust preclinical model for assessing atrial-selective pharmacology” (EMBO Molecular Medicine, 2015)

Test system: NKX2-5-eGFP/w hESCs
Experiment: Cardiac differentiation of hESCs with RA, flow cytometry for GFP at day 15
Format: cell-based, human
From the text: A cocktail of cytokines (Fig1A) was used to initiate cardiac differentiation in NKX2-5-eGFP/w hESCs as described previously (Ng et al, [2008]; Elliott et al, [2011]). To direct differentiating hESCs toward an atrial phenotype, timing and concentration of treatment with RA were carefully optimized (Supplementary Fig S1A–C). We hypothesized that specification of CM subtypes in vitro occurs post-mesoderm formation and prior to the onset of cardiac progenitor stage. Accordingly, embryoid bodies (EBs) were supplemented with RA from day 4, just after the transient expression of early cardiac mesoderm marker, MESP1, until day 7, a time point at which key transcription factors such as NKX2.5, GATA4 and MEF2C important for commitment and specification of cardiovascular lineages are activated (Supplementary Fig S1A).
Therefore, treatment of differentiating hESCs with 1 μmol/l of RA from day 4 to 7 was considered to be most suitable for driving atrial differentiation. As a control, every experiment included parallel differentiating cultures treated with 0.002% DMSO (the final concentration in RA-treated cultures) from day 4 to 7 (Fig1A).
A transgenic NKX2-5-eGFP/w hESC line that faithfully reports endogenous NKX2.5 expression by GFP was described previously (Elliott et al, [2011]). […]
Gene expression was determined on the HumanHT-12 v4 Expression BeadChip at ServiceXS, Leiden, The Netherlands. […]

In the case of `CC1=C(/C=C/C(C)=C/C=C/C(C)=C/C(=O)O)C(C)(C)CCC1` [RA, all-trans retinoic acid], the “percentage of GFP+ cells at day 15” value (RA 1 μmol/l day 4 to 7, flow cytometry, control 65%) is reported as 50% and the “effect on cardiac differentiation (percentage of GFP+ cells at day 15)” value (RA 1–10 nmol/l day 4 to 7) is reported as “enhanced cardiac differentiation”.
